Experimental data: patent US10513511B2, “Aqueous suspension formulation comprising 4-(4-(4-(((3R,5R)-5-((1H-1,2,4-triazol-1-yl)methyl)-5-(2,4-difluoro-phenyl)tetrahydrofuran-3-yl)methoxy)-3-methylphenyl) or a pharmaceutically acceptable salt thereof” (PULMOCIDE LIMITED, priority 2015, dated 2019)

What was measured:
[1] = system: Aspergillus fumigatus (azole resistant strain: TR34/L98H); test: Aspergillus fumigatus infection of human alveoli bilayers (transwells), azole resistant strain; type: cell-based
Experimental: (§1) In vitro models of human alveoli, consisting of a bilayer of human alveolar epithelial cells and endothelial cells, were prepared as previously described (Hope et al., 2007). This system allows administration of a test compound to the upper (“air” space) and/or lower (“systemic” space) compartments. This flexibility has been exploited to explore the effects of combination treatment by dosing Compound (I) to the upper chamber and posaconazole or other anti-fungal agents to the lower chamber. Primary human pulmonary artery endothelial cells (HPAEC) were harvested and diluted to 10^6 cells/mL in EGM-2 media (Lonza, Basel, Switzerland). Transwells were inverted and the cell suspension (100 μL/well) applied to the base of each transwell. The inverted transwells were incubated at RT within a flow hood for 2 hr after which they were turned upright. EGM-2 media was added to the lower (700 μL/well) and upper (100 μL/well) compartments and the transwells were incubated for 48 hr (37° C., 5% CO2). The EGM-2 media in the lower compartment was then replaced with fresh EGM-2 media. A549 cells were harvested and diluted to 5×10^5 cells/mL in 10% EBM, then added to the upper compartment (100 μL/well) of all transwells and the plates incubated for 72 hr (37° C., 5% CO2). Conidia of itraconazole sensitive Aspergillus fumigatus s (NCPF2010) and itraconazole resistant (TR34-L98H) strains were cultured separately in Sabouraud dextrose agar for 3 days. A stock conidia suspension of either strain was prepared from a Sabouraud dextrose agar culture by washing with PBS-tween (10 mL; PBS containing 0.05% Tween-20, 100 U/mL Penicillin and 100 U/mL Streptomycin). The conidia count was assessed using a Neubauer haemocytometer and adjusted to 10^6 conidia/mL with PBS. A working stock of conidia was prepared in EBM (10^5 conidia/mL) immediately prior to use.
(§2) Test and reference compounds (or neat DMSO as the vehicle) were added to the appropriate wells of 24-well plates (3 μL/well containing 600 μL of 2% FBS EBM) for lower compartment treatment and to 96-well plates (1 μL/well containing 200 μL of 2% FBS EBM) for the treatment of the upper compartment, to provide a final DMSO concentration of 0.5%. The media in the upper compartment was aspirated and that containing the appropriate test and reference compounds, or vehicle, were added (100 μL/well). Transwells were then transferred into the 24-well plate containing the test and reference compounds or DMSO vehicle. After incubation for 1 hr (35° C., 5% CO2) the conidia suspension (10 μL/well) was added to the upper compartment of each transwell. Plates were then incubated for 24 hr (35° C., 5% CO2). Supernatants from each compartment (5 μL/compartment) were collected and stored (−20° C.). Media was replaced daily after collection of the supernatants and all wells were treated with test and reference compounds or with DMSO, as described above, for 3 days. Samples continued to be collected until fungal growth was visible by eye in all transwells. The levels of GM in the supernatant in lower compartment were then measured by ELISA (BioRad, CA, USA) as an index of Aspergillus fumigatus invasion.

[2] = Body weight loss of immunocompromised, neutropenic mice caused by A. fumigatus infection; type: in vivo, A/J mice; conditions: days 1, 2 and 3 (therapeutic); for Body weight loss Day 2 / Body weight loss Day 3: vs weight on day 1
Experimental: Aspergillus fumigatus (ATCC 13073 [strain: NIH 5233], American Type Culture Collection, Manassas, Va., USA) was grown on Malt agar (Nissui Pharmaceutical, Tokyo, Japan) plates for 6-7 days at RT (24±1° C.). Spores were aseptically dislodged from the agar plates and suspended in sterile distilled water with 0.05% Tween 80 and 0.1% agar. On the day of infection, spore counts were assessed by haemocytometer and the inoculum was adjusted to obtain a concentration of 1.67×10^8 spores mL^−1 of physiological saline. […] On day 0, animals were infected with the spore suspension (30 μL intra-nasally).
Test substances were administered intra-nasally (35 μL of a suspension (0.0032-10.0 mg/mL of drug substance in physiological saline) once daily, on days 1, 2 and 3 only (thereby representing a therapeutic treatment regimen). For extended prophylactic treatment, test compounds (35 μL of a suspension of 0.0032 or 0.016 mg/mL in physiological saline) were administered intra-nasally once daily for seven days. One group was dosed 30 min before infection on day 0 but not subsequently, while a second group was further dosed on days 1, 2 and 3 after infection. The effects of these treatment paradigms were compared with those obtained when treatment was restricted in other groups to either one day or 30 min before inoculation and then on days 1, 2 and 3 post infection in both cases. In a final group, dosing was limited still further with animals dosed twice, one day and 30 min before infection only.
Animal body weights were monitored daily and at 6 hr after the last dose of drug was administered on day 3, the animals were anesthetised, the tracheas cannulated and BALF blood and lung tissue were collected. The levels of IL-6 and TNFα in serum were determined using Quantikine® mouse IL-6 or TNF-α ELISA kit (R&D systems, Inc., Minneapolis, Minn., USA) respectively. Aspergillus GM in serum was determination using Platelia GM-EIA kits (Bio-Rad Laboratories, Redmond, Wash., USA). Cut-off index (COI) was calculated by the formula: Cut-off index=OD in sample/OD in cut-off control provided in kit. For tissue fungal load assays, 100 mg of lung tissue was removed aseptically and homogenized in 0.2 mL of 0.1% agar in sterile distilled water. Serially diluted lung homogenates were plated on Malt agar plates (50 μL/plate), and incubated at 24±1° C. for 72 to 96 h. The colonies of A. fumigatus on each plate were counted and the fungal titre presented herein as CFUs per gram of lung tissue.

[3] = system: Aspergillus fumigatus (azole susceptible strain: NCPF2010); test: Aspergillus fumigatus infection of human alveoli bilayers (transwells), azole susceptible strain; type: cell-based
Experimental: as §1, §2

[4] = Day 1, TR34-L98H, Compound 0.3 μg/mL upper chamber, posaconazole 0.1 μg/mL lower chamber, combination of both
[5] = Day 2, TR34-L98H, Compound 0.3 μg/mL upper chamber, posaconazole 0.1 μg/mL lower chamber, combination of both
[6] = Day 3, TR34-L98H, Compound 0.3 μg/mL upper chamber, posaconazole 0.1 μg/mL lower chamber, combination of both
[7] = Posaconazole 0.4 mg/mL intranasal
[8] = Posaconazole 2 mg/mL intranasal
[9] = Posaconazole 10 mg/mL intranasal
[10] = Day 1, NCPF2010, Compound (Ia) 0.1 μg/mL upper chamber, posaconazole 0.01 μg/mL lower chamber, combination of both
[11] = Day 2, NCPF2010, Compound (Ia) 0.1 μg/mL upper chamber, posaconazole 0.01 μg/mL lower chamber, combination of both
[12] = Day 3, NCPF2010, Compound (Ia) 0.1 μg/mL upper chamber, posaconazole 0.01 μg/mL lower chamber, combination of both
[13] = Day 4, NCPF2010, Compound (Ia) 0.1 μg/mL upper chamber, posaconazole 0.01 μg/mL lower chamber, combination of both
[14] = Day 5, NCPF2010, Compound (Ia) 0.1 μg/mL upper chamber, posaconazole 0.01 μg/mL lower chamber, combination of both
[15] = Day 6, NCPF2010, Compound (Ia) 0.1 μg/mL upper chamber, posaconazole 0.01 μg/mL lower chamber, combination of both
[16] = Day 7, NCPF2010, Compound (Ia) 0.1 μg/mL upper chamber, posaconazole 0.01 μg/mL lower chamber, combination of both

For CC[C@@H]([C@H](C)O)n1ncn(-c2ccc(N3CCN(c4ccc(OC[C@@H]5CO[C@@](Cn6cncn6)(c6ccc(F)cc6F)C5)cc4)CC3)cc2)c1=O [Posaconazole, reference compound], the MIC50 ([1]; Aspergillus fumigatus, 24 h, read-out: MIC50, invasion into the lower chamber in human alveoli bilayers) was 0.315 µM, the MIC90 ([1]; Aspergillus fumigatus, 24 h, read-out: MIC90, invasion into the lower chamber in human alveoli bilayers) was 0.793 µM and the “GM Levels in the Lower Chamber, OD value” ([1]; Day 0, TR34-L98H, Compound 0.3 μg/mL upper chamber, posaconazole 0.1 μg/mL lower chamber, combination of both) was 0 OD. The “GM Levels in the Lower Chamber, % inhibition vs. vehicle control” value [1, 4] was 98%, the “GM Levels in the Lower Chamber, OD value” [1, 4] was 0.016 OD and the “GM Levels in the Lower Chamber, % inhibition vs. vehicle control” value [1, 5] was 35%. For the same molecule, the “GM Levels in the Lower Chamber, OD value” [1, 5] was 0.73 OD, the “GM Levels in the Lower Chamber, % inhibition vs. vehicle control” value [1, 6] was −10% and the “GM Levels in the Lower Chamber, OD value” [1, 6] was 1.16 OD. For the same molecule, the “DFB50: Days taken to reach a fungal burden of 50% of control” value ([1]; TR34-L98H, Compound 0.3 μg/mL upper chamber, posaconazole 0.1 μg/mL lower chamber, combination of both) was 1.94 days, the “% Inhibition of weight loss Day 2” value [2, 7] was −15% and the “% Inhibition of weight loss Day 3” value [2, 7] was 1%. The “Body weight loss Day 2” value [2, 7] was 5.4 ± 0.4%, the “Body weight loss Day 3” value [2, 7] was 9.2 ± 4.0% and the “% Inhibition of weight loss Day 2” value [2, 8] was 17%. The “% Inhibition of weight loss Day 3” value [2, 8] was 24%, the “Body weight loss Day 2” value [2, 8] was 3.9 ± 1.3% and the “Body weight loss Day 3” value [2, 8] was 7.1 ± 1.9%. For the same molecule, the “% Inhibition of weight loss Day 2” value [2, 9] was 17%, the “% Inhibition of weight loss Day 3” value [2, 9] was 54% and the “Body weight loss Day 2” value [2, 9] was 3.9 ± 1.3%. The “Body weight loss Day 3” value [2, 9] was 4.3 ± 1.8%, the MIC50 ([3]; Aspergillus fumigatus, NCPF2010, 24 h, read-out: MIC50, invasion into the lower chamber in human alveoli bilayers) was 0.155 µM and the MIC90 ([3]; Aspergillus fumigatus, NCPF2010, 24 h, read-out: MIC90, invasion into the lower chamber in human alveoli bilayers) was 0.212 µM. The “GM Levels in the Lower Chamber, OD value” ([3]; Day 0, NCPF2010, Compound (Ia) 0.1 μg/mL upper chamber, posaconazole 0.01 μg/mL lower chamber, combination of both) was 0 OD, the “GM Levels in the Lower Chamber, % inhibition vs.control” value [3, 10] was 89% and the “GM Levels in the Lower Chamber, OD value” [3, 10] was 0.074 OD. The “GM Levels in the Lower Chamber, % inhibition vs.control” value [3, 11] was 1.5%, the “GM Levels in the Lower Chamber, OD value” [3, 11] was 1.71 OD and the “GM Levels in the Lower Chamber, % inhibition vs.control” value [3, 12] was 7.1%. The “GM Levels in the Lower Chamber, OD value” [3, 12] was 1.70 OD, the “GM Levels in the Lower Chamber, % inhibition vs.control” value [3, 13] was −3.0% and the “GM Levels in the Lower Chamber, OD value” [3, 13] was 1.70 OD. The “GM Levels in the Lower Chamber, % inhibition vs.control” value [3, 14] was −3.6%, the “GM Levels in the Lower Chamber, OD value” [3, 14] was 1.69 OD and the “GM Levels in the Lower Chamber, % inhibition vs.control” value [3, 15] was −3.0%. The “GM Levels in the Lower Chamber, OD value” [3, 15] was 1.59 OD, the “GM Levels in the Lower Chamber, % inhibition vs.control” value [3, 16] was 2.5% and the “GM Levels in the Lower Chamber, OD value” [3, 16] was 1.62 OD. For the same molecule, the “DFB50: Days taken to reach a fungal burden of 50% of control” value ([3]; NCPF2010, Compound (Ia) 0.1 μg/mL upper chamber, posaconazole 0.01 μg/mL lower chamber, combination of both) was 1.16 days.
